# Laboratory results from US9346812B2, “Substituted pyrrolopyrimidine compounds, compositions thereof, and methods of treatment therewith” (Signal Pharmaceutical LLC, priority 2013, dated 2016).
# Test system: CAL51 cell proliferation
# Assay: Cell Titer Glo Proliferation Assay (CAL51)
# Assay type: cell-based, human
# Settings: CAL51 cell proliferation, 72 h, Cell Titer Glo luminescence; read-out: Act. Level
# Procedure, shortened: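 CAL51 triple-negative breast cancer cells in DMEM or RPMI with 10% FBS were treated after overnight culture with serially diluted compound at 0.2% final DMSO. After 72 h, viability was read as CellTiter-Glo luminescence.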
row,SMILES,IC50
1,"COc1cc(C(=O)NC2CCCOC2)ccc1Nc1nc(OC2CCCC2)c2c(-c3ccc4nc(C)oc4c3)c[nH]c2n1 (stereo not shown) [Example 274, 4-(4-(cyclopentyloxy)-5-(2-methylbenzo[d]oxazol-6-yl)-7H-pyrrolo[2,3-d]pyrimidin-2-ylamino)-3-methoxy-N-(tetrahydro-2H-pyran-3-yl) benzamide]",< 0.1 µM

# Same assay, conditions: Homo sapiens, CAL-51; CAL51 cell proliferation, 72 h, Cell Titer Glo luminescence; read-out: Act. Level
row,SMILES,IC50
1,"COc1cc(C(=O)N2CC2)ccc1Nc1nc(OC2CCCC2)c2c(-c3ccc4nc(C)oc4c3)c[nH]c2n1 [Example 262, aziridin-1-yl(4-(4-(cyclopentyl-oxy)-5-(2-methylbenzo[d]oxazol-6-yl)-7H-pyrrolo[2,3-d]pyrimidin-2-ylamino)-3-methoxyphenyl) methanone]",0.1 to 0.4 µM
2,"COc1cc(C(=O)N(C)CC#N)ccc1Nc1nc(OC2CCCC2)c2c(-c3ccc4nc(C)oc4c3)c[nH]c2n1 [Example 263, N-(cyanomethyl)-4-(4-(cyclo-pentyloxy)-5-(2-methylbenzo[d]oxazol-6-yl)-7H-pyrrolo[2,3-d]pyrimidin-2-ylamino)-3-methoxy-N-methylbenzamide]",< 0.1 µM
3,"COc1cc(C(=O)N[C@H]2CCC[C@H]2O)ccc1Nc1nc(OC2CCCC2)c2c(-c3ccc4nc(C)oc4c3)c[nH]c2n1 [Example 264, 4-(4-(cyclopentyloxy)-5-(2-methylbenzo[d]oxazol-6-yl)-7H-pyrrolo[2,3-d]pyrimidin-2-ylamino)-N-((1S,2R)-2-hydroxycyclopentyl)-3-methoxy-benzamide]",0.1 to 0.4 µM
4,"COc1cc(C(=O)N[C@H]2CCC[C@@H]2O)ccc1Nc1nc(OC2CCCC2)c2c(-c3ccc4nc(C)oc4c3)c[nH]c2n1 [Example 265, 4-(4-(cyclopentyloxy)-5-(2-methylbenzo[d]oxazol-6-yl)-7H-pyrrolo[2,3-d]pyrimidin-2-ylamino)-N-((1S,2S)-2-hydroxy-cyclopentyl)-3-methoxybenzamide]",0.1 to 0.4 µM
5,"COc1cc(C(=O)N[C@@H]2CCC[C@H]2O)ccc1Nc1nc(OC2CCCC2)c2c(-c3ccc4nc(C)oc4c3)c[nH]c2n1 [Example 266, 4-(4-(cyclopentyloxy)-5-(2-methylbenzo[d]oxazol-6-yl)-7H-pyrrolo[2,3-d]pyrimidin-2-ylamino)-N-((1R,2R)-2-hydroxycyclopentyl)-3-methoxybenzamide]",0.1 to 0.4 µM
6,"COc1cc(C(=O)N[C@H]2CCOC2)ccc1Nc1nc(OC2CCCC2)c2c(-c3ccc4nc(C)oc4c3)c[nH]c2n1 [Example 267, (S)-4-(4-(cyclopentyloxy)-5-(2-methylbenzo[d]oxazol-6-yl)-7H-pyrrolo[2,3-d]pyrimidin-2-ylamino)-3-methoxy-N-(tetrahydrofuran-3-yl)benzamide]",0.1 to 0.4 µM
7,"COc1cc(C(=O)N(C)CC(N)=O)ccc1Nc1nc(OC2CCCC2)c2c(-c3ccc4nc(C)oc4c3)c[nH]c2n1 [Example 268, N-(2-amino-2-oxoethyl)-4-(4-(cyclopentyloxy)-5-(2-methylbenzo[d]oxazol-6-yl)-7H-pyrrolo[2,3-d]pyrimidin-2-ylamino)-3-methoxy-N-methylbenzamide]",< 0.1 µM
8,"CNC(=O)c1ccc(Nc2nc(OC3CCOCC3)c3c(-c4ccnnc4)c[nH]c3n2)c(OC)c1 [Example 269, 3-methoxy-N-methyl-4-(5-(pyridazin-4-yl)-4-(tetrahydro-2H-pyran-4-yloxy)-7H-pyrrolo[2,3-d]pyrimidin-2-ylamino)benzamide]",0.4 to 1 µM
9,"CNC(=O)c1ccc(Nc2nc(OC3CCOCC3)c3c(-c4ccncn4)c[nH]c3n2)c(OC)c1 [Example 270, 3-methoxy-N-methyl-4-(5-(pyrimidin-4-yl)-4-(tetrahydro-2H-pyran-4-yloxy)-7H-pyrrolo[2,3-d]pyrimidin-2-ylamino)benzamide]",0.1 to 0.4 µM
10,"COc1cc(C(=O)N(C)CC2(C)COC2)ccc1Nc1nc(OC2CCCC2)c2c(-c3ccc4nc(C)oc4c3)c[nH]c2n1 [Example 271, 4-(4-(cyclopentyloxy)-5-(2-methylbenzo[d]oxazol-6-yl)-7H-pyrrolo[2,3-d]pyrimidin-2-ylamino)-3-methoxy-N-methyl-N-((3-methyloxetan-3-yl)methyl)benzamide]",< 0.1 µM
11,"COc1cc(C(=O)N(C)C2COC2)ccc1Nc1nc(OC2CCCC2)c2c(-c3ccc4nc(C)oc4c3)c[nH]c2n1 [Example 272, 4-(4-(cyclopentyloxy)-5-(2-methylbenzo[d]oxazol-6-yl)-7H-pyrrolo[2,3-d]pyrimidin-2-ylamino)-3-methoxy-N-methyl-N-(oxetan-3-yl)benzamide]",< 0.1 µM
12,"COc1cc(C(=O)NC2CCCOC2)ccc1Nc1nc(OC2CCCC2)c2c(-c3ccc4nc(C)oc4c3)c[nH]c2n1 (stereo not shown) [Example 273, 4-(4-(cyclopentyloxy)-5-(2-methylbenzo[d]oxazol-6-yl)-7H-pyrrolo[2,3-d]pyrimidin-2-yl-amino)-3-methoxy-N-(tetrahydro-2H-pyran-3-yl)benzamide]",< 0.1 µM
13,"COc1cc(C(=O)N2CCC(OC)CC2)ccc1Nc1nc(OC2CCCC2)c2c(-c3ccc4nc(C)oc4c3)c[nH]c2n1 [Example 275, (4-(4-(cyclopentyloxy)-5-(2-methylbenzo[d]oxazol-6-yl)-7H-pyrrolo[2,3-d]pyrimidin-2-ylamino)-3-methoxyphenyl)(4-methoxypiperidin-1-yl)methanone]",< 0.1 µM
14,"CC[C@H](C)Oc1nc(Nc2ccc(C(=O)NC)cc2OC)nc2[nH]cc(-c3cnn(C)c3)c12 [Example 276, (S)-4-(4-sec-butoxy-5-(1-methyl-1H-pyrazol-4-yl)-7H-pyrrolo[2,3-d]pyrimidin-2-ylamino)-3-methoxy-N-methylbenzamide]",< 0.1 µM
15,"COc1cc(C#N)ccc1Nc1nc(OC2CCCC2)c2c(-c3ccc4nc(C)oc4c3)c[nH]c2n1 [Example 277, 4-(4-(cyclopentyloxy)-5-(2-methylbenzo[d]oxazol-6-yl)-7H-pyrrolo[2,3-d]pyrimidin-2-ylamino)-3-methoxybenzonitrile]",0.1 to 0.4 µM
16,"CNC(=O)c1ccc(Nc2nc(OC3CCCC3)c3c(-c4ccc5cnn(C)c5c4)c[nH]c3n2)c(OC)c1 [Example 278, 4-(4-(cyclopentyloxy)-5-(1-methyl-1H-indazol-6-yl)-7H-pyrrolo[2,3-d]pyrimidin-2-ylamino)-3-methoxy-N-methylbenzamide]",0.4 to 1 µM
17,"CNC(=O)c1ccc(Nc2nc(OC3CCCC3)c3c(-c4ccc5c(C)noc5c4)c[nH]c3n2)c(OC)c1 [Example 279, 4-(4-(cyclopentyloxy)-5-(3-methylbenzo[d]isoxazol-6-yl)-7H-pyrrolo[2,3-d]pyrimidin-2-ylamino)-3-methoxy-N-methylbenzamide]",< 0.1 µM
18,"CNC(=O)c1cc(OC)c(Nc2nc(OC3CCCC3)c3c(-c4ccc5nc(C)oc5c4)c[nH]c3n2)cn1 [Example 280, 5-(4-(cyclopentyloxy)-5-(2-methylbenzo[d]oxazol-6-yl)-7H-pyrrolo[2,3-d]pyrimidin-2-ylamino)-4-methoxy-N-methylpicolinamide]",< 0.1 µM
19,"COc1cc(C(=O)NCC2COCCO2)ccc1Nc1nc(OC2CCCC2)c2c(-c3ccc4nc(C)oc4c3)c[nH]c2n1 (stereo not shown) [Example 281, N-((1,4-dioxan-2-yl)methyl)-4-(4-(cyclopentyloxy)-5-(2-methylbenzo[d]oxazol-6-yl)-7H-pyrrolo[2,3-d]pyrimidin-2-ylamino)-3-methoxybenzamide]",0.1 to 0.4 µM
20,"COc1cc(C(=O)NCC2COC2)ccc1Nc1nc(OC2CCCC2)c2c(-c3ccc4nc(C)oc4c3)c[nH]c2n1 [Example 282, 4-(4-(cyclopentyloxy)-5-(2-methylbenzo[d]oxazol-6-yl)-7H-pyrrolo[2,3-d]pyrimidin-2-ylamino)-3-methoxy-N-(oxetan-3-ylmethyl)benzamide]",0.1 to 0.4 µM
21,COc1cc(C(=O)N(C)CCCO)ccc1Nc1nc(OC2CCCC2)c2c(-c3ccc4nc(C)oc4c3)c[nH]c2n1 [Example 283],< 0.1 µM
22,"COCCN(C)C(=O)c1ccc(Nc2nc(OC3CCCC3)c3c(-c4ccc5nc(C)oc5c4)c[nH]c3n2)c(OC)c1 [Example 284, 4-(4-(cyclopentyloxy)-5-(2-methylbenzo[d]oxazol-6-yl)-7H-pyrrolo[2,3-d]pyrimidin-2-ylamino)-3-methoxy-N-(2-methoxyethyl)-N-methylbenzamide]",< 0.1 µM
23,"COc1cc(C(=O)NCC(C)(C)O)ccc1Nc1nc(OC2CCCC2)c2c(-c3ccc4nc(C)oc4c3)c[nH]c2n1 [Example 285, 4-(4-(cyclopentyloxy)-5-(2-methylbenzo[d]oxazol-6-yl)-7H-pyrrolo[2,3-d]pyrimidin-2-ylamino)-N-(2-hydroxy-2-methylpropyl)-3-methoxybenzamide]",0.1 to 0.4 µM
24,"CC[C@H](C)Oc1nc(Nc2ccc(C(=O)NCCO)cc2OC)nc2[nH]cc(-c3cnn(C)c3)c12 [Example 286, (S)-4-(4-sec-butoxy-5-(1-methyl-1H-pyrazol-4-yl)-7H-pyrrolo [2,3-d]pyrimidin-2-ylamino)-N-(2-hydroxyethyl)-3-methoxybenzamide]",0.1 to 0.4 µM
25,"COc1cc(C(=N)N)ccc1Nc1nc(OC2CCCC2)c2c(-c3ccc4nc(C)oc4c3)c[nH]c2n1 [Example 287, 4-(4-(cyclopentyloxy)-5-(2-methylbenzo[d]oxazol-6-yl)-7H-pyrrolo[2,3-d]pyrimidin-2-ylamino)-3-methoxybenzimidamide]",1 to 10 µM
26,"CNC(=O)c1ccc(Nc2nc(OC3CCOCC3)c3c(-c4ccnc(C(=O)NC)c4)c[nH]c3n2)c(OC)c1 [Example 288, 4-(2-(2-methoxy-4-(methylcarbamoyl)phenylamino)-4-(tetrahydro-2H-pyran-4-yloxy)-7H-pyrrolo[2,3-d]pyrimidin-5-yl)-N-methylpicolinamide]",0.1 to 0.4 µM
27,"COc1cc(C(=O)N2CCC(F)(F)CC2)ccc1Nc1nc(OC2CCCC2)c2c(-c3ccc4nc(C)oc4c3)c[nH]c2n1 [Example 289, (4-(4-(cyclopentyloxy)-5-(2-methylbenzo[d]oxazol-6-yl)-7H-pyrrolo[2,3-d]pyrimidin-2-ylamino)-3-methoxyphenyl)(4,4-difluoropiperidin-1-yl)methanone]",0.1 to 0.4 µM
